Measured values published in paper PMC10653547, “Synergistic effect of two antimicrobial peptides, BP203 and MAP-0403 J-2 with conventional antibiotics against colistin-resistant Escherichia coli and Klebsiella pneumoniae clinical isolates” (PLOS ONE, 2023).

Legend:
[1] = system: colistin-resistant E. coli clinical isolates; test: Checkerboard assay for synergy testing; assay type: cell-based, Escherichia coli
Experimental: (§1) The synergistic activities of various two-antimicrobial combinations against colistin-resistant E. coli and K. pneumoniae isolates were evaluated using the checkerboard assay, which was performed in 96-well plates. […] Two-fold serial dilutions of peptides and antibiotics were independently prepared in CAMHB. Afterward, a mixture of different concentrations of the antibiotics and peptides was added to the wells of the microplates. Antibiotics and peptides were also dispended alone in the first row and the first column, respectively. Bacterial inoculum was added to the 96-well plate to achieve a final concentration of 5 × 10^5 CFU/mL. Then, plates were incubated at 37 °C for 20–24 h. MICs were recorded as the minimum concentration of antimicrobial agents without bacterial growth. The interaction between the antimicrobials was determined by calculating the fractional inhibitory concentration index (FICI) according to the formula: FICI = FIC(drug A) + FIC(drug B), where FIC = the MIC of the drug when in the combination/MIC of drug tested individually.

[2] = system: colistin-resistant K. pneumoniae clinical isolates; test: Checkerboard assay for synergy testing; assay type: cell-based, Klebsiella pneumoniae
Experimental: as §1

[3] = isolate EC-01, checkerboard Ceftazedime+BP203
[4] = isolate EC-02, checkerboard Ceftazedime+BP203
[5] = isolate EC-03, checkerboard Ceftazedime+BP203
[6] = isolate EC-04, checkerboard Ceftazedime+BP203
[7] = isolate EC-05, checkerboard Ceftazedime+BP203
[8] = isolate EC-06, checkerboard Ceftazedime+BP203
[9] = isolate EC-07, checkerboard Ceftazedime+BP203
[10] = isolate EC-08, checkerboard Ceftazedime+BP203
[11] = isolate EC-09, checkerboard Ceftazedime+BP203
[12] = isolate EC-10, checkerboard Ceftazedime+BP203
[13] = isolate KP-01, checkerboard Ceftazedime+BP203
[14] = isolate KP-02, checkerboard Ceftazedime+BP203
[15] = isolate KP-03, checkerboard Ceftazedime+BP203
[16] = isolate KP-04, checkerboard Ceftazedime+BP203
[17] = isolate KP-05, checkerboard Ceftazedime+BP203
[18] = isolate KP-06, checkerboard Ceftazedime+BP203
[19] = isolate KP-07, checkerboard Ceftazedime+BP203
[20] = isolate KP-08, checkerboard Ceftazedime+BP203
[21] = isolate KP-09, checkerboard Ceftazedime+BP203
[22] = isolate KP-10, checkerboard Ceftazedime+BP203
[23] = checkerboard BP203 x meropenem, KP-01
[24] = checkerboard BP203 x meropenem, KP-02
[25] = checkerboard BP203 x meropenem, KP-03
[26] = checkerboard BP203 x meropenem, KP-04
[27] = checkerboard BP203 x meropenem, KP-05
[28] = checkerboard BP203 x meropenem, KP-06
[29] = checkerboard BP203 x meropenem, KP-08
[30] = checkerboard BP203 x meropenem, KP-09
[31] = checkerboard BP203 x meropenem, KP-10
[32] = checkerboard MAP-0403 J-2 x meropenem, KP-01
[33] = checkerboard MAP-0403 J-2 x meropenem, KP-02
[34] = checkerboard MAP-0403 J-2 x meropenem, KP-03
[35] = checkerboard MAP-0403 J-2 x meropenem, KP-05
[36] = checkerboard MAP-0403 J-2 x meropenem, KP-06
[37] = checkerboard MAP-0403 J-2 x meropenem, KP-07
[38] = checkerboard MAP-0403 J-2 x meropenem, KP-08
[39] = checkerboard MAP-0403 J-2 x meropenem, KP-09
[40] = checkerboard MAP-0403 J-2 x meropenem, KP-10
[41] = isolate EC-01, checkerboard Rifampicin+BP203
[42] = isolate EC-01, checkerboard Rifampicin+MAP-0403 J-2
[43] = isolate EC-02, checkerboard Rifampicin+BP203
[44] = isolate EC-02, checkerboard Rifampicin+MAP-0403 J-2
[45] = isolate EC-03, checkerboard Rifampicin+BP203
[46] = isolate EC-03, checkerboard Rifampicin+MAP-0403 J-2
[47] = isolate EC-04, checkerboard Rifampicin+BP203
[48] = isolate EC-04, checkerboard Rifampicin+MAP-0403 J-2
[49] = isolate EC-05, checkerboard Rifampicin+BP203
[50] = isolate EC-05, checkerboard Rifampicin+MAP-0403 J-2
[51] = isolate EC-06, checkerboard Rifampicin+BP203
[52] = isolate EC-06, checkerboard Rifampicin+MAP-0403 J-2
[53] = isolate EC-07, checkerboard Rifampicin+BP203
[54] = isolate EC-07, checkerboard Rifampicin+MAP-0403 J-2
[55] = isolate EC-08, checkerboard Rifampicin+BP203
[56] = isolate EC-08, checkerboard Rifampicin+MAP-0403 J-2
[57] = isolate EC-09, checkerboard Rifampicin+BP203
[58] = isolate EC-09, checkerboard Rifampicin+MAP-0403 J-2
[59] = isolate EC-10, checkerboard Rifampicin+BP203
[60] = isolate EC-10, checkerboard Rifampicin+MAP-0403 J-2
[61] = isolate KP-01, checkerboard Rifampicin+BP203
[62] = isolate KP-01, checkerboard Rifampicin+MAP-0403 J-2
[63] = isolate KP-02, checkerboard Rifampicin+BP203
[64] = isolate KP-02, checkerboard Rifampicin+MAP-0403 J-2
[65] = isolate KP-03, checkerboard Rifampicin+BP203
[66] = isolate KP-03, checkerboard Rifampicin+MAP-0403 J-2
[67] = isolate KP-04, checkerboard Rifampicin+BP203
[68] = isolate KP-04, checkerboard Rifampicin+MAP-0403 J-2
[69] = isolate KP-05, checkerboard Rifampicin+BP203
[70] = isolate KP-05, checkerboard Rifampicin+MAP-0403 J-2
[71] = isolate KP-06, checkerboard Rifampicin+BP203
[72] = isolate KP-06, checkerboard Rifampicin+MAP-0403 J-2
[73] = isolate KP-07, checkerboard Rifampicin+BP203
[74] = isolate KP-07, checkerboard Rifampicin+MAP-0403 J-2
[75] = isolate KP-08, checkerboard Rifampicin+BP203
[76] = isolate KP-08, checkerboard Rifampicin+MAP-0403 J-2
[77] = isolate KP-09, checkerboard Rifampicin+BP203
[78] = isolate KP-09, checkerboard Rifampicin+MAP-0403 J-2
[79] = isolate KP-10, checkerboard Rifampicin+BP203
[80] = isolate KP-10, checkerboard Rifampicin+MAP-0403 J-2

CC(C)(O/N=C(\C(=O)N[C@@H]1C(=O)N2C(C(=O)[O-])=C(C[n+]3ccccc3)CS[C@H]12)c1csc(N)n1)C(=O)O [Ceftazedime]
MIC alone [1, 3]: 8 µg/mL
MIC combination [1, 3]: 4 µg/mL
MIC alone [1, 4]: 16 µg/mL
MIC combination [1, 4]: 4 µg/mL
MIC alone [1, 5]: 32 µg/mL
MIC combination [1, 5]: 8 µg/mL
MIC alone [1, 6]: 32 µg/mL
MIC combination [1, 6]: 8 µg/mL
MIC alone [1, 7]: 1 µg/mL
MIC combination [1, 7]: 0.25 µg/mL
MIC alone [1, 8]: 16 µg/mL
MIC combination [1, 8]: 0.5 µg/mL
MIC alone [1, 9]: 16 µg/mL
MIC combination [1, 9]: 8 µg/mL
MIC alone [1, 10]: 0.5 µg/mL
MIC combination [1, 10]: 0.25 µg/mL
MIC alone [1, 11]: 16 µg/mL
MIC combination [1, 11]: 8 µg/mL
MIC alone [1, 12]: 8 µg/mL
MIC combination [1, 12]: 4 µg/mL
MIC alone [2, 13]: 128 µg/mL
MIC combination [2, 13]: 8 µg/mL
MIC alone [2, 14]: 128 µg/mL
MIC combination [2, 14]: 16 µg/mL
MIC alone [2, 15]: 512 µg/mL
MIC combination [2, 15]: 128 µg/mL
MIC alone [2, 16]: 512 µg/mL
MIC combination [2, 16]: 512 µg/mL
MIC alone [2, 17]: 512 µg/mL
MIC combination [2, 17]: 4 µg/mL
MIC alone [2, 18]: 256 µg/mL
MIC combination [2, 18]: 16 µg/mL
MIC alone [2, 19]: 1020 µg/mL
MIC combination [2, 19]: 512 µg/mL
MIC alone [2, 20]: 512 µg/mL
MIC combination [2, 20]: 64 µg/mL
MIC alone [2, 21]: 512 µg/mL
MIC combination [2, 21]: 128 µg/mL
MIC alone [2, 22]: 512 µg/mL
MIC combination [2, 22]: 32 µg/mL

C[C@@H](O)[C@H]1C(=O)N2C(C(=O)O)=C(S[C@@H]3CN[C@H](C(=O)N(C)C)C3)[C@H](C)[C@H]12 [Meropenem, meropenem]
MIC alone [2, 23]: 8 µg/mL
MIC combination [2, 23]: 2 µg/mL
MIC alone [2, 24]: 16 µg/mL
MIC combination [2, 24]: 4 µg/mL
MIC alone [2, 25]: 64 µg/mL
MIC combination [2, 25]: 16 µg/mL
MIC alone [2, 26]: 256 µg/mL
MIC combination [2, 26]: 64 µg/mL
MIC alone [2, 27]: 64 µg/mL
MIC combination [2, 27]: 16 µg/mL
MIC alone [2, 28]: 16 µg/mL
MIC combination [2, 28]: 4 µg/mL
MIC combination ([2]; checkerboard BP203 x meropenem, KP-07): 32 µg/mL
MIC alone [2, 29]: 64 µg/mL
MIC combination [2, 29]: 8 µg/mL
MIC alone [2, 30]: 64 µg/mL
MIC combination [2, 30]: 16 µg/mL
MIC alone [2, 31]: 16 µg/mL
MIC combination [2, 31]: 4 µg/mL
MIC alone [2, 32]: 4 µg/mL
MIC combination [2, 32]: 2 µg/mL
MIC alone [2, 33]: 8 µg/mL
MIC combination [2, 33]: 8 µg/mL
MIC alone [2, 34]: 32 µg/mL
MIC combination [2, 34]: 0.25 µg/mL
MIC alone [2, 35]: 32 µg/mL
MIC combination [2, 35]: 32 µg/mL
MIC alone [2, 36]: 8 µg/mL
MIC combination [2, 36]: 4 µg/mL
MIC alone [2, 37]: 64 µg/mL
MIC combination [2, 37]: 64 µg/mL
MIC alone [2, 38]: 64 µg/mL
MIC combination [2, 38]: 64 µg/mL
MIC alone [2, 39]: 64 µg/mL
MIC combination [2, 39]: 32 µg/mL
MIC alone [2, 40]: 16 µg/mL
MIC combination [2, 40]: 8 µg/mL

CO[C@H]1/C=C/O[C@@]2(C)Oc3c(C)c(O)c4c(O)c(c(/C=N/N5CCN(C)CC5)c(O)c4c3C2=O)NC(=O)/C(C)=C\C=C\[C@H](C)[C@H](O)[C@@H](C)[C@@H](O)[C@@H](C)[C@H](OC(C)=O)[C@@H]1C [RIF, rifampicin]
MIC alone [1, 41]: 2 µg/mL
MIC combination [1, 41]: 1 µg/mL
MIC alone [1, 42]: 4 µg/mL
MIC combination [1, 42]: 0.5 µg/mL
MIC alone [1, 43]: 4 µg/mL
MIC combination [1, 43]: 0.25 µg/mL
MIC alone [1, 44]: 8 µg/mL
MIC combination [1, 44]: 2 µg/mL
MIC alone [1, 45]: 4 µg/mL
MIC combination [1, 45]: 1 µg/mL
MIC alone [1, 46]: 8 µg/mL
MIC combination [1, 46]: 0.25 µg/mL
MIC alone [1, 47]: 4 µg/mL
MIC combination [1, 47]: 1 µg/mL
MIC alone [1, 48]: 16 µg/mL
MIC combination [1, 48]: 4 µg/mL
MIC alone [1, 49]: 2 µg/mL
MIC combination [1, 49]: 0.5 µg/mL
MIC alone [1, 50]: 8 µg/mL
MIC combination [1, 50]: 2 µg/mL
MIC alone [1, 51]: 4 µg/mL
MIC combination [1, 51]: 1 µg/mL
MIC alone [1, 52]: 8 µg/mL
MIC combination [1, 52]: 1 µg/mL
MIC alone [1, 53]: 4 µg/mL
MIC combination [1, 53]: 1 µg/mL
MIC alone [1, 54]: 16 µg/mL
MIC combination [1, 54]: 4 µg/mL
MIC alone [1, 55]: 2 µg/mL
MIC combination [1, 55]: 0.5 µg/mL
MIC alone [1, 56]: 8 µg/mL
MIC combination [1, 56]: 0.25 µg/mL
MIC alone [1, 57]: 4 µg/mL
MIC combination [1, 57]: 2 µg/mL
MIC alone [1, 58]: 8 µg/mL
MIC combination [1, 58]: 0.5 µg/mL
MIC alone [1, 59]: 2 µg/mL
MIC combination [1, 59]: 0.5 µg/mL
MIC alone [1, 60]: 8 µg/mL
MIC combination [1, 60]: 0.5 µg/mL
MIC alone [2, 61]: 512 µg/mL
MIC combination [2, 61]: 16 µg/mL
MIC alone [2, 62]: 256 µg/mL
MIC combination [2, 62]: 16 µg/mL
MIC alone [2, 63]: 512 µg/mL
MIC combination [2, 63]: 4 µg/mL
MIC alone [2, 64]: 256 µg/mL
MIC combination [2, 64]: 16 µg/mL
MIC alone [2, 65]: 32 µg/mL
MIC combination [2, 65]: 4 µg/mL
MIC alone [2, 66]: 32 µg/mL
MIC combination [2, 66]: 2 µg/mL
MIC alone [2, 67]: 128 µg/mL
MIC combination [2, 67]: 4 µg/mL
MIC alone [2, 68]: 256 µg/mL
MIC combination [2, 68]: 32 µg/mL
MIC alone [2, 69]: 16 µg/mL
MIC combination [2, 69]: 1 µg/mL
MIC alone [2, 70]: 16 µg/mL
MIC combination [2, 70]: 1 µg/mL
MIC alone [2, 71]: 512 µg/mL
MIC combination [2, 71]: 8 µg/mL
MIC alone [2, 72]: 256 µg/mL
MIC combination [2, 72]: 32 µg/mL
MIC alone [2, 73]: 32 µg/mL
MIC combination [2, 73]: 4 µg/mL
MIC alone [2, 74]: 32 µg/mL
MIC combination [2, 74]: 2 µg/mL
MIC alone [2, 75]: 16 µg/mL
MIC combination [2, 75]: 4 µg/mL
MIC alone [2, 76]: 16 µg/mL
MIC combination [2, 76]: 2 µg/mL
MIC alone [2, 77]: 512 µg/mL
MIC combination [2, 77]: 32 µg/mL
MIC alone [2, 78]: 256 µg/mL
MIC combination [2, 78]: 128 µg/mL
MIC alone [2, 79]: 32 µg/mL
MIC combination [2, 79]: 4 µg/mL
MIC alone [2, 80]: 32 µg/mL
MIC combination [2, 80]: 2 µg/mL
